According to ChEMBL document CHEMBL3046293, “Fungicidal Activities of -Methoxyphenylacetic Acid Derivatives” (2002):

Columns and labels:
Format in all cases: functional
Pyricularia oryzae [1] = assay: Fungicidal activity against Magnaporthe oryzae Cav. race 003 assessed as rice blast disease control at 7.8 ppm foliar application for 24 hr before inoculation by preventive manner
Pyricularia oryzae [2] = assay: Fungicidal activity against Magnaporthe oryzae Cav. race 003 assessed as rice blast disease control at 31.3 ppm foliar application for 24 hr before inoculation by preventive manner
Pyricularia oryzae [3] = assay: Fungicidal activity against Magnaporthe oryzae Cav. race 003 assessed as rice blast disease control at 125 ppm foliar application for 24 hr before inoculation by preventive manner
Pyricularia oryzae [4] = assay: Fungicidal activity against Magnaporthe oryzae Cav. race 003 assessed as rice blast disease control at 2 ppm foliar application for 24 hr before inoculation by preventive manner
Pyricularia oryzae [5] = assay: Fungicidal activity against Magnaporthe oryzae Cav. race 003 assessed as rice blast disease control at 500 ppm treated 24 hr before inoculation by preventive manner
Botrytis cinerea [6] = assay: Fungicidal activity against Botryotinia fuckeliana assessed as cucumber gray mold disease control at 125 ppm treated 24 hr before inoculation by preventive manner
Podosphaera fuliginea [7] = assay: Fungicidal activity against Podosphaera fuliginea assessed as cucumber powdery mildew disease control at 31.3 ppm treated 24 hr before inoculation by preventive manner
Podosphaera fuliginea [8] = assay: Fungicidal activity against Podosphaera fuliginea assessed as cucumber powdery mildew control at 0.125 ppm foliar application 24 hr after inoculation by curative manner
Podosphaera fuliginea [9] = assay: Fungicidal activity against Podosphaera fuliginea assessed as cucumber powdery mildew control at 0.5 ppm foliar application 24 hr before inoculation by preventive manner
Podosphaera fuliginea [10] = assay: Fungicidal activity against Podosphaera fuliginea assessed as cucumber powdery mildew control at 7.8 ppm foliar application 24 hr before inoculation by preventive manner
Podosphaera fuliginea [11] = assay: Fungicidal activity against Podosphaera fuliginea assessed as cucumber powdery mildew control at 2 ppm foliar application 24 hr after inoculation by curative manner
Podosphaera fuliginea [12] = assay: Fungicidal activity against Podosphaera fuliginea assessed as cucumber powdery mildew control at 0.5 ppm foliar application 24 hr after inoculation by curative manner
Podosphaera fuliginea [13] = assay: Fungicidal activity against Podosphaera fuliginea assessed as cucumber powdery mildew control at 7.8 ppm foliar application 24 hr after inoculation by curative manner
Podosphaera fuliginea [14] = assay: Fungicidal activity against Podosphaera fuliginea assessed as cucumber powdery mildew control at 2 ppm foliar application 24 hr before inoculation by preventive manner
Podosphaera fuliginea [15] = assay: Fungicidal activity against Podosphaera fuliginea assessed as cucumber powdery mildew control at 0.125 ppm foliar application 24 hr before inoculation by preventive manner
Botrytis cinerea [16] = assay: Fungicidal activity against Botryotinia fuckeliana assessed as cucumber gray mold disease control at 7.8 ppm treated 24 hr before inoculation by preventive manner
Pyricularia oryzae [17] = assay: Fungicidal activity against Magnaporthe oryzae Cav. race 003 assessed as rice blast disease control at 31.3 ppm treated 24 hr before inoculation by preventive manner
Podosphaera fuliginea [18] = assay: Fungicidal activity against Podosphaera fuliginea assessed as cucumber powdery mildew disease control at 7.8 ppm treated 24 hr before inoculation by preventive manner
Thanatephorus cucumeris [19] = assay: Fungicidal activity against Thanatephorus cucumeris assessed as rice sheath blight disease control at 7.8 ppm foliar application for 24 hr after inoculation by curative manner
Thanatephorus cucumeris [20] = assay: Fungicidal activity against Thanatephorus cucumeris assessed as rice sheath blight disease control at 125 ppm foliar application for 24 hr before inoculation by preventive manner
Thanatephorus cucumeris [21] = assay: Fungicidal activity against Thanatephorus cucumeris assessed as rice sheath blight disease control at 2 ppm foliar application for 24 hr after inoculation by curative manner
Thanatephorus cucumeris [22] = assay: Fungicidal activity against Thanatephorus cucumeris assessed as rice sheath blight disease control at 125 ppm foliar application for 24 hr after inoculation by curative manner
Thanatephorus cucumeris [23] = assay: Fungicidal activity against Thanatephorus cucumeris assessed as rice sheath blight disease control at 2 ppm foliar application for 24 hr before inoculation by preventive manner
Thanatephorus cucumeris [24] = assay: Fungicidal activity against Thanatephorus cucumeris assessed as rice sheath blight disease control at 7.8 ppm foliar application for 24 hr before inoculation by preventive manner
Thanatephorus cucumeris [25] = assay: Fungicidal activity against Thanatephorus cucumeris assessed as rice sheath blight disease control at 31.3 ppm foliar application for 24 hr before inoculation by preventive manner
Thanatephorus cucumeris [26] = assay: Fungicidal activity against Thanatephorus cucumeris assessed as rice sheath blight disease control at 31.3 ppm foliar application for 24 hr after inoculation by curative manner

C/C(=N/Nc1nc(C)cc(C)n1)c1ccccc1C [FERIMZONE]
Activity (Pyricularia oryzae [1]): 50%
Activity (Pyricularia oryzae [2]): 90%
Activity (Pyricularia oryzae [3]): 97%
Activity (Pyricularia oryzae [4]): 30%

CCNC(=O)C(OC)c1cccc(COc2cc(C)ccc2C)c1 (stereo unspecified)
Activity (Pyricularia oryzae [5]): <90%
Activity (Botrytis cinerea [6]): 50%
Activity (Podosphaera fuliginea [7]): 90%

OC(c1ccc(Cl)cc1)(c1cncnc1)c1ccccc1Cl (stereo unspecified) [FENARIMOL]
Activity (Podosphaera fuliginea [8]): 80%
Activity (Podosphaera fuliginea [9]): 80%
Activity (Podosphaera fuliginea [10]): 100%
Activity (Podosphaera fuliginea [11]): 99%
Activity (Podosphaera fuliginea [12]): 99%
Activity (Podosphaera fuliginea [13]): 100%
Activity (Podosphaera fuliginea [14]): 95%
Activity (Podosphaera fuliginea [15]): 0%

CNC(=O)C(OC)c1cccc(COc2cc(C)cc(C)c2C)c1 (stereo unspecified)
Activity (Botrytis cinerea [16]): 50%
Activity (Pyricularia oryzae [17]): 90%
Activity (Podosphaera fuliginea [18]): 90%

CC(C)Oc1cccc(NC(=O)c2ccccc2C(F)(F)F)c1 [FLUTOLANIL]
Activity (Thanatephorus cucumeris [19]): 70%
Activity (Thanatephorus cucumeris [20]): 90%
Activity (Thanatephorus cucumeris [21]): 40%
Activity (Thanatephorus cucumeris [22]): 80%
Activity (Thanatephorus cucumeris [23]): 20%
Activity (Thanatephorus cucumeris [24]): 70%
Activity (Thanatephorus cucumeris [25]): 80%
Activity (Thanatephorus cucumeris [26]): 80%
